According to US20240254220A1, “COMBINED THERAPY USING ANTI-CD300C ANTIBODY” (CentricsBio, Inc., priority 2021, published 2024):

Legend:
A549 cells = assay: A549 growth inhibition by chemotherapeutic agents (concentration selection); format: cell-based, human; conditions: A549, serial dilutions, 5 days, CCK-8
Method: First, sorafenib was dissolved in dimethyl sulfoxide.
First, gemcitabine was dissolved in dimethyl sulfoxide.
First, paclitaxel was dissolved in […].

[1] = system: A549 (human lung cancer cell line); assay: A549 cell proliferation analysis, anti-CD300c antibody with chemotherapeutic agent; format: cell-based; conditions: 5 days
Method: In order to identify the cancer cell growth inhibitory effect by combined treatment with an anti-CD300c monoclonal antibody and sorafenib, cell proliferation analysis was performed using A549 (human lung cancer cell line). Into a 96-well plate, 20,000 cancer cells were inoculated and treated with 10 ug/mL anti-CD300c monoclonal antibody and 9 μM sorafenib, followed by incubation for 5 days. After the incubation, 10 μL of CCK-8 (DOJINDO) was added to each well, followed by incubation for 4 hours, and the absorbance was measured at 450 nm.
In order to identify the cancer cell growth inhibitory effect by combined treatment with an anti-CD300c monoclonal antibody and gemcitabine, cell proliferation analysis was performed using A549 (human lung cancer cell line). The cells were treated with the anti-CD300c antibody in combination with 1.9 μM gemcitabine for 5 days, and then 10 μL of CCK-8 (DOJINDO) was added to each well, followed by incubation for 4 hours, and the absorbance was measured at 450 nm.
In order to identify the cancer cell growth inhibitory effect by combined treatment with an anti-CD300c monoclonal antibody and paclitaxel, cell proliferation analysis was performed using A549 (human lung cancer cell line). The cells were treated with the anti-CD300c monoclonal antibody in combination with paclitaxel and incubated for 5 days. Thereafter, 10 μL of CCK-8 (DOJINDO) was added to each well, followed by incubation for 4 hours, and the absorbance was measured at 450 nm.

[2] = system: MKN45, IM95, HT-29, A549, HCT116, MDA-MB-231, HepG2 cancer cell lines; assay: Cancer cell apoptosis resistance (rapamycin, Annexin V / PI fluorescence); format: cell-based, human; conditions: 8 hours treatment, then rapamycin 48 hours
From the text: (§1) In order to identify whether the combined treatment with an anti-CD300c monoclonal antibody and a chemotherapeutic agent can inhibit cancer cell apoptosis resistance, MKN45 (human gastric cancer cell line), IM95 (human gastric cancer cell line), HT-29 (human colon cancer cell line), A549 (human lung cancer cell line), HCT116 (human colon cancer cell line), MDA-MB-231 (human breast cancer cell line), and HepG2 (human liver cancer cell line) were used. Each type of cancer cells were inoculated at 1×10^4 into a 96-well plate and incubated for 16 hours. The incubated cells were treated with an anti-CD300c monoclonal antibody and a chemotherapeutic agent in combination for 8 hours, and then treated with rapamycin for 48 hours. The degree of survival of cancer cells was identified by fluorescence analysis using Annexin V and propidium iodide (PI).
as §1, with “gemcitabine” for “a chemotherapeutic agent”, “The incubated cells were treated with an anti-CD300c monoclonal antibody and a chemotherapeutic agent in combination for 8 hours, and then treated with rapamycin for 48 hours.” left out
In order to identify whether the combined treatment with an anti-CD300c monoclonal antibody and paclitaxel can inhibit cancer cell apoptosis resistance, MKN45 (human gastric cancer cell line), IM95 (human gastric cancer cell line), HT-29 (human colon cancer cell line), A549 (human lung cancer cell line), HCT116 (human colon cancer cell line), MDA-MB-231 (human breast cancer cell line), and HepG2 (human liver cancer cell line) were used. […] The degree of survival of cancer cells was identified by fluorescence analysis using Annexin V and propidium iodide (PI).

[3] = system: MKN45, IM95, HT-29, A549, HCT116, MDA-MB-231, HepG2 cancer cell lines; assay: Cancer cell migration/infiltration (scratch wound); format: cell-based, human; conditions: 24 hours
From the text: (§2) In order to identify the cancer cell migration/infiltration inhibitory effect by the combined treatment with an anti-CD300c monoclonal antibody and sorafenib, MKN45 (human gastric cancer cell line), IM95 (human gastric cancer cell line), HT-29 (human colon cancer cell line), A549 (human lung cancer cell line), HCT116 (human colon cancer cell line), MDA-MB-231 (human breast cancer cell line), and HepG2 (human liver cancer cell line) were used. Into a 6-well plate, 1×10^5 cancer cells were inoculated and incubated for 16 hours, and then each well was wounded by scratching with a pipette tip. The detached cells were removed by washing with medium, and then treated with an anti-CD300c monoclonal antibody for 8 hours. Thereafter, observation was performed for 24 hours. On the basis of the area of the wound formed by scratching with the pipette tip, the migration distance of cancer cells was measured, and this distance was calculated as a percentage (%) to identify the degree of migration inhibition.
as §2, with “migration/invasion” for “migration/infiltration”, “gemcitabine, MKN45,” for “sorafenib, MKN45 (human gastric cancer cell line),”, “inhibition. […]” for “inhibition.”

[4] = system: CT26 cells (mouse colon cancer cell line); assay: In vivo anticancer effect in huCD34-NSG mice bearing CT26 cells; parameters: species or system humanized mouse models (huCD34-NSG mice); conditions: antibody 25 mg/kg, chemotherapeutic agents 10 mg/kg, i.p. twice a week, four times
Method: In order to identify the anticancer effect under in vivo conditions by the combined treatment with an anti-CD300c monoclonal antibody and a chemotherapeutic agent, human solid tumor xenograft models were prepared by subcutaneous injection of 1×10^6 CT26 cells (mouse colon cancer cell line) to humanized mouse models (huCD34-NSG mice). From 3 days after the administration of cancer cells, the mice were divided into a group administered 25 mg/kg anti-CD300c monoclonal antibody alone, groups administered the chemotherapeutic agents sorafenib, gemcitabine, and paclitaxel at 10 mg/kg for each, groups administered an anti-CD300c monoclonal antibody and chemotherapeutic agents, and a non-administered group. After the intraperitoneal administration with the anti-CD300c monoclonal antibody and each of the chemotherapeutic agents alone or in combination twice a week, a total of four times, the solid tumor tissue was isolated from the mice to measure the size thereof to identify the therapeutic effect of the anti-CD300c monoclonal antibody alone and the effects of the combined administration with existing chemotherapeutic agents.

Compound	cancer cell growth inhibitory effect (A549 cells)	inhibition at 1.9 µM ([1]; Homo sapiens, 120 h, A549, gemcitabine 1.9 μM, read-out: cancer cell growth inhibitory rate)	increase in MFI compared with hIgG1 isotype control group ([2]; gemcitabine experiment)	degree of migration inhibition ([3]; gemcitabine experiment)	tumor inhibition rate [4]	cancer cell growth inhibitory rate ([1]; A549, paclitaxel experiment)	increase in MFI compared with hIgG1 isotype control group ([2]; paclitaxel experiment)	degree of migration inhibition ([3]; paclitaxel experiment)	inhibition at 9 µM ([1]; Homo sapiens, 120 h, A549, antibody 10 ug/mL, sorafenib 9 μM, read-out: cancer cell growth inhibitory rate)	increase in MFI compared with hIgG1 isotype control group ([2]; sorafenib experiment)	degree of migration inhibition ([3]; sorafenib experiment)
Nc1ccn([C@@H]2O[C@H](CO)[C@@H](O)C2(F)F)c(=O)n1 [gemcitabine]	concentration-dependent cancer cell growth inhibitory effect	38%	21%	28%	25%						
CC(=O)O[C@H]1C(=O)[C@@]2(C)[C@H]([C@H](OC(=O)c3ccccc3)[C@]3(O)C[C@H](OC(=O)[C@H](O)[C@@H](NC(=O)c4ccccc4)c4ccccc4)C(C)=C1C3(C)C)[C@]1(OC(C)=O)CO[C@@H]1C[C@@H]2O [paclitaxel]	concentration-dependent cancer cell growth inhibitory effect				21%	24%	19%	20%			
CNC(=O)c1cc(Oc2ccc(NC(=O)Nc3ccc(Cl)c(C(F)(F)F)c3)cc2)ccn1 [sorafenib]	concentration-dependent cancer cell growth inhibitory effect				22%				45%	21%	32%
